In PMC11126801 (The Journal of Biological Chemistry, 2024):

Assays:
[1] = target: T1, HCN3 (Homo sapiens, UniProt Q9P1Z3); assay: cryo-EM structure of the apo channel ([…] Å) with CHS density; IC50 by whole-cell patch clamp; format: cell-based
T1 sequence (Q9P1Z3 1-774): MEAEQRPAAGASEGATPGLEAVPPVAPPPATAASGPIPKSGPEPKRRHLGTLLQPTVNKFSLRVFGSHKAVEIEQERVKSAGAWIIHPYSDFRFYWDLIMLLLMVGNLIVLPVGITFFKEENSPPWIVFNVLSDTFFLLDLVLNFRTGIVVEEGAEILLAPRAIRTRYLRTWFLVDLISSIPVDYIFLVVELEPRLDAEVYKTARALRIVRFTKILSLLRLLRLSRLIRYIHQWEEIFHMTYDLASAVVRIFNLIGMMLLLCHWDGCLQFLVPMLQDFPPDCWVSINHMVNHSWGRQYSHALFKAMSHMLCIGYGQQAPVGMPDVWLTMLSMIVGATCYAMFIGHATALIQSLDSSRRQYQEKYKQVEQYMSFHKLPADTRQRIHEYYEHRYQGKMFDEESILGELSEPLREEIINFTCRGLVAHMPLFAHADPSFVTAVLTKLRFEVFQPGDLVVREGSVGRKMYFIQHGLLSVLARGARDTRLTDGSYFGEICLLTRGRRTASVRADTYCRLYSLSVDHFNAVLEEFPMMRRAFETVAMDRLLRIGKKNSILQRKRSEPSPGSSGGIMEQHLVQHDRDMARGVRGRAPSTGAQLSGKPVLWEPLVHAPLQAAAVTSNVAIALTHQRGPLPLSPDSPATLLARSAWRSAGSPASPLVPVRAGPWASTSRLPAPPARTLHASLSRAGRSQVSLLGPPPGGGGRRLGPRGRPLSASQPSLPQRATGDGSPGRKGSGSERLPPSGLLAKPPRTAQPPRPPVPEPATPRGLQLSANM

[2] = target: T1, HCN3; assay: whole-cell patch clamp of HCN3 currents in transfected HeLa cells; format: cell-based; parameters: human HCN3 (WT) expressed in HeLa cells
[3] = target: the molecule itself; assay: cryo-EM structure; single-particle cryo-EM of MBP-HCN3 in 0.1% digitonin, 300 mM KCl, 2 mM DTT, 20 mM Tris pH 8.0; ligand-free sample and sample with 5 mM cAMP; final refinement in C4 symmetry

CC(C)CCC[C@@H](C)[C@H]1CC[C@H]2[C@@H]3CC=C4C[C@@H](OC(=O)CCC(=O)O)CC[C@]4(C)[C@H]3CC[C@]12C [cholesteryl hemisuccinate]
IC50 [1]: 1450 µM

CC(C)CCC[C@@H](C)[C@H]1CC[C@H]2[C@@H]3CC=C4C[C@@H](O)CC[C@]4(C)[C@H]3CC[C@]12C [cholesterol]
IC50 [2]: 480 µM

B1: full-length wild-type human HCN3 with its N terminus fused to maltose-binding protein (MBP) (natural protein, UniProt Q9P1Z3 1-774, looked up)
chain: T1 sequence (Q9P1Z3 1-774)
notes: the tag was not cleaved for the structures; Modelled residues: 50-151, 156-191, 210-476, 484-543 (apo); also 477-483 with cAMP; also called HCN3 channel; apo-HCN3; source: HEK293S cells, BacMam transduction, purified (MBP beads, Superose 6 SEC, digitonin); not shown: MBP, N-terminal, kept
stoichiometry N [3]: 4
